ChEMBL document CHEMBL6182916, “Unexpected Discovery of a Novel Triphenylphosphonium Alkylalcohol That Triggers Cancer Cell Death via Mitophagy and Ferroptosis” (J Med Chem, 2025)
Calls of active or inactive are those of the source. The rule behind the calls is not given here.

Legend:
HCC827 [1] = experiment: Induction of mitochondrial dysfunction in human HCC827 cells assessed as mitochondrial shrinkage by TEM analysis; format: functional, cell-based
HCC827 [2] = experiment: Induction of apoptosis in human HCC827 cells assessed as late apoptotic cells at 0.5 uM measured after 48 hrs by annexin V and PI staining based flow cytometry analysis (reference value: 1.29%; format: functional
[3] = Antiproliferative activity against HEK293T cells assessed as inhibition of cell growth measured after 72 hrs by MTT assay; format: toxicity, cell-based, HEK-293T; details: human
[4] = Toxicity in female BALB/c mouse assessed as histopathological changes in kidney at 30 mg/kg, ip measured for 7 days by H and E staining based analysis; format: organism-based; details: in vivo, 168 h, time 7 day
HCC827 [5] = experiment: Induction of mitochondrial dysfunction in human HCC827 cells assessed as cytochrome C release in cytoplasm at 0.4 uM measured after 72 hrs by laser scanning confocal fluorescence microscopic analysis; format: functional, cell-based
HCC827 [6] = experiment: Induction of mitochondrial dysfunction in human HCC827 cells assessed as suppression of maximal oxygen consumption rate incubated for 4 hrs by Seahorse XF96 extracellular flux analyzer; format: functional, cell-based; details: dose 0.125-5 µM
HeLa = experiment: Induction of mitophagy in human HeLa cells assessed as colocalization of mitochondria and lysosomes at 0.5 uM by lysotracker red staining based confocal microscopy analysis; format: functional, cell-based
HCC827 [7] = experiment: Induction of ROS generation in human HCC827 cells assessed as increase in NAD+/NADH ratio at 1 uM incubated for 4 hrs by absorbance based analysis; format: functional, cell-based
Mitochondrial membrane [8] = experiment: Induction of mitochondrial membrane depolarization in human BEAS-2B cells assessed as increase in JC-1 monomer ratio at 0.25 to 0.5 uM incubated for 4 hrs by JC-1 staining based confocal microscopy analysis; format: cell membranes; details: dose 0.25-0.5 µM
HCC827 [9] = experiment: Induction of apoptosis in human HCC827 cells assessed as late apoptotic cells at 1 uM measured after 48 hrs by annexin V and PI staining based flow cytometry analysis (reference value: 2.18%); format: functional
HCC827 [10] = experiment: Downregulation of VDAC1 expression level in human HCC827 cells 0.25 to 0.5 uM incubated for 24 hrs in presence of BFA by Western blot analysis; format: functional, cell-based; details: dose 0.25-0.5 µM
HCC827 [11] = experiment: Antitumor activity against human HCC827 cells xenografted in female nude mouse model assessed as reduction in tumor weight at 5 to 10 mg/kg, ip measured every two days for 14 days; format: functional, organism-based; details: dose 5-10 mg/kg, time 14.0 day
HCC827 [12] = experiment: Effect on ATP5A expression in human HCC827 cells at 0.25 to 0.5 uM incubated for 24 hrs by Western blot analysis; format: functional, cell-based; details: dose 0.25-0.5 µM
HCC827 [13] = experiment: Antiproliferative activity against human HCC827 cells assessed as inhibition of cell growth measured after 72 hrs by MTT assay; format: functional, cell-based; details: HCC827, 72 h
HCC827 [14] = experiment: Induction of apoptosis in human HCC827 cells assessed as necrotic cells at 0.5 uM measured after 48 hrs by annexin V and PI staining based flow cytometry analysis (reference value: 1.18%); format: functional
HCC827 [15] = experiment: Downregulation of HK-2 expression level in human HCC827 cells 0.25 to 0.5 uM incubated for 24 hrs in presence of BFA by Western blot analysis; format: functional, cell-based; details: dose 0.25-0.5 µM
HCC827 [16] = experiment: Induction of cell cycle arrest in human HCC827 cells assessed as accumulation of cells at S phase at 0.1 uM incubated for 24 hrs by PI staining based flow cytometry analysis (reference value: 26.41%); format: functional
Mitochondrial membrane [17] = experiment: Induction of mitochondrial membrane depolarization in human NCI-H1650 cells assessed as increase in JC-1 monomer ratio at 0.25 to 0.5 uM incubated for 4 hrs by JC-1 staining based confocal microscopy analysis; format: cell membranes; details: dose 0.25-0.5 µM
[18] = Toxicity in female Kunming mouse assessed as change in body weight at 70 mg/kg, ip measured every two days for 7 days; format: organism-based; details: in vivo, 168 h, time 7 day
HEK-293T [19] = experiment: Downregulation of […] expression level in human HEK293T cells harbouring PINK knockout at 0.25 to 0.5 uM; format: functional, cell-based; details: dose 0.25-0.5 µM
HCC827 [20] = experiment: Induction of ROS generation in human HCC827 cells assessed as decrease in NADH content at 1 uM incubated for 4 hrs by absorbance based analysis; format: functional, cell-based
HCC827 [21] = experiment: Downregulation of SDHB expression in human HCC827 cells incubated for 24 hrs by Western blot analysis; format: functional, cell-based; details: dose 0.25-0.5 µM
HCC827 [22] = experiment: Upregulation of PINK1 level in human HCC827 cells at 0.25 to 0.5 uM measured after 24 hrs; format: functional, cell-based; details: dose 0.25-0.5 µM
HCC827 [23] = experiment: Induction of cell cycle arrest in human HCC827 cells assessed as accumulation of cells at G1 phase at 0.4 uM incubated for 24 hrs by PI staining based flow cytometry analysis (reference value: 66.44%); format: functional
HCC827 [24] = experiment: Induction of mitochondrial dysfunction in human HCC827 cells assessed as suppression of ATP production incubated for 4 hrs by Seahorse XF96 extracellular flux analyzer; format: functional, cell-based; details: dose 0.125-5 µM
HCC827 [25] = experiment: Induction of apoptosis in human HCC827 cells assessed as early apoptotic cells at 0.25 uM measured after 48 hrs by annexin V and PI staining based flow cytometry analysis (reference value: 0.70%); format: functional
HCC827 [26] = experiment: Induction of apoptosis in human HCC827 cells assessed as viable cells at 0.5 uM measured after 48 hrs by annexin V and PI staining based flow cytometry analysis (reference value: 96.74%); format: functional; details: read-out: Activity
HEK-293T [27] = experiment: Downregulation of […] expression level in human HEK293T cells; format: functional, cell-based; details: dose 0.25-0.5 µM
HCC827 [28] = experiment: Antimetastatic activity against human HCC827 cells xenografted in female nude mouse model assessed as increase in cadherin level at 5 to 10 mg/kg, ip by Western blot analysis; format: functional, organism-based; details: dose 5-10 mg/kg
SK-LU-1 = experiment: Antiproliferative activity against human SK-LU-1 cells assessed as inhibition of cell growth measured after 72 hrs by MTT assay; format: functional, cell-based; details: SK-LU-1, 72 h
NCI-H1650 = experiment: Antiproliferative activity against human NCI-H1650 cells assessed as inhibition of cell growth measured after 72 hrs by MTT assay; format: functional, cell-based; details: NCI-H1650, 72 h
HCC827 [29] = experiment: Downregulation of TIMM23 expression level in human HCC827 cells incubated for 24 hrs by Western blot analysis; format: functional, cell-based; details: dose 0.25-0.5 µM
HCC827 [30] = experiment: Induction of ROS generation in human HCC827 cells assessed as green fluorescence intensity at 1 uM incubated for 24 hrs by DCFH-DA staining based by absorbance based laser confocal microscopic analysis; format: functional, cell-based
HCC827 [31] = experiment: Induction of mitochondrial dysfunction in human HCC827 cells assessed as appearance of vacuoles with damaged mitochondria at 1 uM after 24 hrs by TEM analysis; format: functional, cell-based
HCC827 [32] = experiment: Induction of cell cycle arrest in human HCC827 cells assessed as accumulation of cells at G1 phase at 0.2 uM incubated for 24 hrs by PI staining based flow cytometry analysis (reference value: 66.44%); format: functional
[33] = Toxicity in female Kunming mouse assessed as animal death at 70 mg/kg, ip measured every two days for 7 days; format: organism-based; details: in vivo, 168 h, time 7 day
HCC827 [34] = experiment: Antiproliferative activity against human HCC827 cells assessed as cell viability preincubated with Nec followed by compound addition and measured after 48 hrs by MTT assay; format: functional, cell-based

Cc1ccc([P+](CCCCCCCCCCO)(c2ccc(C)cc2)c2ccc(C)cc2)cc1.[Br-]
Activity (HCC827 [1]): Active | Activity (HCC827 [2]): 7.12% | IC50 at 72 h [3]: 1520 nM | Activity [4]: Non-toxic | Activity (HCC827 [5]): Active | Activity (HCC827 [6]): Dose-dependent-effect | Activity (HeLa): Active | Activity (HCC827 [7]): Active | Activity (Mitochondrial membrane [8]): inactive | Activity (HCC827 [9]): 0.75% | Activity (HCC827 [10]): inactive | Activity (HCC827 [11]): Active | Activity (HCC827 [12]): Active | IC50 (HCC827 [13]): 70 nM | Activity (HCC827 [14]): 2.09% | Activity (HCC827 [15]): inactive | Activity (HCC827 [16]): 24.03% | Activity (Mitochondrial membrane [17]): Active | Activity [18]: Toxic | Activity (HEK-293T [19]): inactive | Activity (HCC827 [20]): Active | Activity (HCC827 [21]): Active | Activity (HCC827 [22]): Active | Activity (HCC827 [23]): 85.66% | Activity (HCC827 [24]): Dose-dependent-effect | Activity (HCC827 [25]): 1.16% | viability at 0.5 µM (HCC827 [26]): 88.5% | Activity (HEK-293T [27]): Dose-dependent-effect | Activity (HCC827 [28]): Active | IC50 (SK-LU-1): 230 nM | IC50 (NCI-H1650): 470 nM | Activity (HCC827 [29]): Dose-dependent-effect | Activity (HCC827 [30]): Active | Activity (HCC827 [31]): Active | Activity (HCC827 [32]): 76.74% | Activity [33]: Toxic | IC50 (HCC827 [34]): 130 nM
